As usually defined, the GI50 is the concentration at which growth is held to half of that of the control. Broadly, the TGI is the concentration at which net growth stops. A low value points to more potent growth arrest.

Test in all cases: DTP human tumour cell line panel, 48 h
Test [1] deals with SK-MEL-5 melanoma.
The test system of test [2] is OVCAR-4 ovarian.
Test [3] deals with SK-MEL-28 melanoma.
Test [4] deals with HCT-116 colon.
Test [5] deals with MDA-MB-231 breast.
Test [6] concerns 786-0 renal.
In test [7] the test system is MCF7 breast.
For test [8], the system named is SN12C renal.
Test [9] deals with MDA-MB-435.
The subject of test [10] is UACC-62 melanoma.

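Growth conditions: 96-well plates. Treatment: test compound, 48 hours, 5 concentrations. Analysis: linear interpolation between bracketing concentrations; unreached endpoints set to highest concentration. At the GI50, growth is halved. Definition used: TGI = concentration required for complete inhibition of growth.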

As to `CCSc1nc(N=Cc2cccs2)c2cn[nH]c2n1`, the GI50 was 7.35 µM in [1]; 17.8 µM in test [2]; 22.3 µM in test [3]; 6.49 µM in [4]; 4.51 µM in test [5]; 33.4 µM in test [6]. Also, the GI50 is 3.5 µM in test [7], 61.9 µM in test [8], 10.8 µM in test [9] and 8.39 µM in test [10]. For the same compound, the TGI was 38.1 µM in [1]; 67.4 µM in test [2]; above 100 µM in test [3]; above 100 µM in [4]; above 100 µM in test [5]; above 100 µM in test [6]. In addition, the TGI in test [7] is 19.2 µM; in test [8] it was above 100 µM; in test [9], 57.2 µM; in test [10] it was 23.1 µM.
Take `C[C@]12CCC(=O)C(O)=C1CC[C@@H]1[C@@H]2CC[C@]2(C)C(=O)CC[C@@H]12`: the TGI in test [1], in [2], in [3], in test [4], in test [5] and in test [6] was above 100 µM each time. Moreover, the TGI in [7], in test [8], in test [9] and in test [10] was above 100 µM throughout.
Take `CN(C)CCCNC(=O)c1cc(NC(=O)c2cc(NC(=O)c3cc(NC(=O)CCc4c[nH]c5ccccc45)cn3C)cn2C)cn1C`: the GI50 is above 100 µM in test [1]; 88.5 µM in [2]; 2.24 µM in test [3]; above 100 µM in test [4]; above 100 µM in test [5]; above 100 µM in [6]. The GI50 was 56.8 µM in [7], above 100 µM in [8], above 100 µM in test [9] and above 100 µM in [10]. The TGI in [1], in test [2], in [3], in test [4], in test [5] and in test [6] was above 100 µM in each case. Moreover, the TGI in test [7], in test [8], in test [9] and in test [10] was above 100 µM throughout.
As to `CC(=O)N1c2ccccc2Sc2cc(C(O)(C(F)(F)F)C(F)(F)F)ccc21`, the TGI in test [1], in [2], in test [3], in [4], in test [5] and in [6] was above 10 µM in each case. Also, the TGI in test [7], in test [8], in test [9] and in test [10] was above 10 µM throughout.
Regarding `C[C@]12CC[C@@H]3c4ccc(O)cc4CC[C@H]3[C@@H]1CC[C@@H]2NS(=O)(=O)Cc1ccc(Cl)cc1`, the GI50 in test [1] was 1.77 µM; in test [2], 2.69 µM; in test [3] it was 2.01 µM; in test [4], 1.92 µM; in test [5] it was 1.75 µM; in test [6] it was 2.66 µM. Besides, the GI50 was 2.92 µM in test [7], 1.7 µM in test [8], 2.78 µM in test [9] and 1.92 µM in test [10]. Besides, the TGI was determined as 3.45 µM in test [1]; 13.6 µM in [2]; 4.22 µM in test [3]; 3.97 µM in [4]; 4.54 µM in [5]; 6.87 µM in [6]. The TGI in test [7] was found to be 9.62 µM; in [8], 3.36 µM; in [9], 9.03 µM; in test [10], 4.56 µM.
For `Cc1ccc2c(N)c(C(=O)N[C@H]3CCc4cc(N5CC6CCC(C5)N6)ccc4C3)sc2n1`, the GI50 in [1] is 0.569 µM; in test [2] it was 0.301 µM; in test [3], 0.586 µM; in [4], 0.251 µM; in test [5], 0.606 µM; in test [6], 0.497 µM. Further, the GI50 in test [7] was 0.283 µM; in [8], 0.263 µM; in test [9] it was 0.359 µM; in [10] it was 0.709 µM. The TGI in test [1] turned out to be 1.9 µM; in [2], 1.96 µM; in test [3], 2.81 µM; in [4] it was 3.44 µM; in test [5], 2.71 µM; in test [6], 3.86 µM. Moreover, the TGI came to 2.43 µM in test [7], 1.8 µM in [8], 2.34 µM in [9] and 3.11 µM in [10].
As for `CCOC(=O)Oc1c(OC)cc(C(=O)O[C@@H]2C[C@@H]3CN4CCc5c([nH]c6cc(OC)ccc56)[C@H]4C[C@@H]3[C@H](C(=O)OC)[C@H]2OC)cc1OC`, the GI50 in [1] was 7.86 µM; in [2], 4.72 µM; in test [3], 6.32 µM; in [4], 1.73 µM; in test [5] it was 2.56 µM; in test [6], 9.62 µM. Also, the GI50 in test [7] is 4.13 µM; in [8], 4.34 µM; in [9], 8.33 µM; in [10], 6.89 µM. For the same compound, the TGI in [1] stood at 20.7 µM; in [2], 19.8 µM; in test [3], 18.8 µM; in test [4] it was 3.58 µM; in [5], 19.6 µM; in test [6] it was 25.3 µM. For the same compound, the TGI in [7] amounted to 17.3 µM; in [8], 17.7 µM; in test [9], 23.9 µM; in test [10] it was 20.3 µM.
Take `Cc1[nH]c(/C=C2\C(=O)Nc3ccc(F)cc32)c(C)c1C(=O)NC[C@H](O)CN1CCOCC1`: the GI50 in [1] is 4.04 µM; in test [2], 7.95 µM; in test [3] it was 4.16 µM; in [4] it was 2.42 µM; in test [5], 4.25 µM; in test [6], 4.91 µM. The GI50 in [7] was 3.11 µM; in [8] it was 3.05 µM; in test [9] it was 3.2 µM; in test [10], 3.55 µM. Further, the TGI in test [1], in test [2], in test [3], in test [4], in test [5] and in [6] was above 10 µM in each case. Besides, the concentration for total growth inhibition (TGI) in test [7], in test [8], in [9] and in test [10] was above 10 µM throughout.

The values are drawn from PubChem BioAssay (NCI).
